Results: patent US10946053B2, “Composition containing mixed extract of mulberry and Poria cocos bark for preventing, improving or treating neurodegenerative disorders” (NeuroBo Pharmaceuticals, Inc., priority 2014, dated 2021)

Columns and labels:
[1] = tested on: Scopolamine Induced Memory Impairment Model; experiment: Passive avoidance task, scopolamine induced memory impairment model; type: in vivo, ICR mice; settings: scopolamine 1 mg/kg i.p., oral, extracts 100 mg/kg, Donepezil 1 mg/kg
Experimental: (§1) Six-week-old ICR mice were used for the experiment and each experimental group consisted of 8 animals.
(§2) Normal animals were injected with the same amount of physiological saline. Behavioral studies were performed after 30 minutes of scopolamine administration.
(§3) The lyophilized drug, comparative drug and control drug were suspended in 3% HPMC aqueous solution, and all the drugs were prepared on the day of the experiment.
Passive avoidance experiments were performed in two independently separated bright and dark square boxes. Bright areas (20×20×20 cm) were illuminated with 50 W incandescent lamps. Light and dark areas (20×20×20 cm) were spaced 1 cm apart and 2 mm stainless steel rods were installed.
In the habituation phase, the two sections were separated by a guillotine door (5×5 cm), and the guillotine door was opened after 30 seconds after placing the experimental animals in the light section. The animals were allowed to freely navigate. When they reached the dark area, the guillotine door was closed and the animals were taken out after 3 seconds.
(§4) Acquisition trials were conducted 24 hours later. […] The time that the animals entered the dark zone was measured.
(§5) After performing the acquisition trials and giving a 24-hour rest period, the experimental animals were placed in a bright area for measuring the retention trial and the time until entering the dark area was measured. […]

[2] = tested on: Aβ Infusion Model (Aβ42); experiment: Passive avoidance task, Aβ42 administration model; type: in vivo, ICR mice; settings: Aβ42 injected, once a day for 11 days, extracts 100 mg/kg, Donepezil 1 mg/kg
Experimental: (§6) Six-week-old ICR mice were used in the experiment. The animals were anesthetized, fixed in a stereotaxic apparatus (Stoelting) and injected with 3 μl of vehicle (artificial CSF) or Aβ42 for 6 minutes using a Hamilton micro syringe (fitted with a 26-gauge needle).
(§7) Animals treated with Aβ42 were randomly divided into experimental groups. From 2 days after administration of Aβ42, the experimental drug and the positive control drug were administered once a day for 11 days.
as §3
Passive avoidance experiments were performed in two independently separated bright and dark square boxes. Bright areas (20×20×20 cm) were illuminated with 50 W incandescent lamps. Light and dark areas (20×20×20 cm) were spaced 1 cm apart and 2 mm stainless steel rods were installed. […]
as §4, §5

[3] = tested on: Scopolamine Induced Memory Impairment Model; experiment: Y-maze test, scopolamine model; type: in vivo, ICR mice; settings: extracts 100 mg/kg, Donepezil 1 mg/kg
Experimental: as §1, §2, §3
(§8) The Y-maze experiment was conducted to investigate the effect of short-term memory. The animals were placed on one arm of the Y-maze and allowed to move freely for 8 minutes. Spontaneous alternation and total number of entries were measured. When the animals were consecutively entered into three arms, they were defined as alternation entry, and the ratio was calculated by the following equation 1. Spontaneous alternation ratio (%)=[(number of changes)/(total number of arm entry−2)]×100 [Equation 1]

[4] = tested on: Aβ Infusion Model (Aβ42); experiment: Y-maze test, Aβ42 administration model; type: in vivo, ICR mice; settings: extracts 100 mg/kg, Donepezil 1 mg/kg
Experimental: as §6, §7, §3, §8

[5] = tested on: Scopolamine Induced Memory Impairment Model; experiment: Novel object recognition (NOR) task, scopolamine model; type: in vivo, ICR mice; settings: extracts 100 mg/kg, Donepezil 1 mg/kg, test session
Experimental: as §1, §2, §3
(§9) Inside a black box of 45 cm width, 45 cm length, 50 cm height, two plastic objects of the same size but different shapes were placed. The experimental animals were allowed to move freely for 8 minutes and the time spent on each object was measured (training session) 24 hours later, the experimental animals were placed in a box with one familiar object and one new object in the training session and the time spent in each object was measured (test session). The recorded values were calculated using the following equation (2), which is expressed as a recognition result of a new object. Recognition rate of new objects (%)=Time spent on new objects/(Time spent on new objects+Time spent on experienced objects)×100 [Equation 2]

[6] = tested on: Aβ Infusion Model (Aβ42); experiment: Novel object recognition (NOR) task, Aβ42 administration model; type: in vivo, ICR mice; settings: extracts 100 mg/kg, Donepezil 1 mg/kg
Experimental: as §3, §9

[7] = tested on: NeuN, a neural cell marker; experiment: Immunohistochemical staining with NeuN in hippocampus, Aβ infusion model (FIG. 1); type: in vivo, ICR mice
Experimental: as §6, §7
For immunohistochemical staining, the Aβ infusion animal described in Experimental Example 1-1 was perfused with 1×PBS (phosphate buffered saline), fixed with 4% paraformaldehyde, and brain was extracted. This was fixed in the same solution for one day and stored in a 30% sucrose solution and the solution was changed every two days until frozen at […] After that, brain tissue was frozen sufficiently at −20° C. by dropping OCT (optimal cutting temperature) compound in a cryostat, and then made into a 30 μm-thick section, and stored at 4° C. in a preservative solution. Immunohistochemical staining was performed with the hippocampus portion. […]

[8] = tested on: human Tau [pS199]; experiment: Phosphorylated tau in neuronal cell line (ELISA), Aβ42 treated; type: cell-based; settings: Donepezil 10 μM
Experimental: Phosphorylated tau levels were measured in order to confirm the inhibitory effect of crude herbal extracts on tau hyper-phosphorylation. […] The phosphorylated tau was measured using human Tau [pS199] enzyme-linked immunosorbent assay (ELISA) KIT purchased from Invitrogen.

[9] = tested on: beta-nerve growth factor; experiment: NGF level measurement in nerve cell line (ELISA); type: cell-based, human; settings: extracts 10 μg/ml, Donepezil 10 μM
Experimental: NGF levels were measured in order to determine the mechanism of cognitive improvement of the herbal mixed extracts. […] NGF levels were measured using a beta-nerve growth factor human enzyme-linked immunosorbent assay (ELISA) KIT purchased from Abcam.

`COc1cc2c(cc1OC)C(=O)C(CC1CCN(Cc3ccccc3)CC1)C2` (stereo not shown) [Donepezil] showed a Retention time ([1]; retention trial 24 h after acquisition) of 243.5, an Acquisition time ([1]; time to enter dark area, acquisition trial) of 77.4 and an Acquisition time ([2]; acquisition trial) of 78.4. For the same compound, the Retention time ([2]; retention trial) was 244.2, the “spontaneous alternation (%)” value [3] was 67.2% and the “Total number of entries” value ([3]; 8 minutes) was 64. For the same compound, the True enter ([3]; 8 minutes) was 43, the “spontaneous alternation (%)” value [4] was 70.5% and the “Total number of entries” value ([4]; 8 minutes) was 61. The True enter ([4]; 8 minutes) was 43, the “Familiar object recognition time” value [5] was 7.9 and the “New object recognition time” value [5] was 12.9. The “Total object recognition time” value [5] was 20.8, the “Total object recognition on time” value [6] was 26.8 and the “NeuN expression / neuroprotective effect (FIG. 1), in words” value [7] was “failed to show neuroprotective effects”. The “inhibitory effect on tau phosphorylation, in words” value ([8]; SH-SY5Y cells, Aβ42) was “did not show any inhibitory effect”, the “Phosphorus tau pg/g protein” value ([8]; differentiated SH-SY5Y cells, Aβ42 48 hours, extracts 10 μg/ml) was 1699 pg/g protein and the “effect of promoting NGF production in nerve cell line, in words” value ([9]; SH-SY5Y cells) was “did not show the effect of promoting NGF production”. For the same compound, the “NGF (pg/g protein)” value ([9]; differentiated SH-SY5Y cells) was 421 pg/g protein.
